Test results taken from patent publication US20260049104A1, “PEPTIDES WITH ANTIMICROBIAL PROPERTIES” (priority 2022, published 2026).
In brackets after ≈: the same amount, converted by molar mass. Read-outs that look alike come from different tables or passages of the source. No end group written: not given here.

Assays:
[1] = tested on: Gram-positive and Gram-negative bacteria; conditions: panel of E. coli, K. pneumoniae, E. cloacae, A. baumannii, E. faecalis and S. aureus; preliminary screening
Procedure: (§1) MIC screening of the peptides against a panel of ATCC and clinical strains was performed using broth microdilution method.^1 Briefly, peptides stock solutions in DMSO (0.1/G TFA) were diluted into Mueller Hinton Broth (MHB), followed by two-fold serial dilution in a 96-well plate. Bacteria culture in mid-log phase was diluted into MHB to yield […] colony-forming units (CFU)/mL. Equal volume of the starting inoculum was added to the peptide samples, then incubated for 18-20 h (37° C., 120 rpm). OD600 of the samples was then measured using Tecan Infinite M200 (TECAN, Männedorf, Switzerland). MIC is defined as the lowest peptide concentration to achieve more than 90% reduction in OD600 relative to the drug-free control. The experiments were repeated three times. Colistin-resistant clinical isolates are a kind gift from Dr. Jeanette Koh (National University Hospital, Singapore). Multidrug-resistant clinical isolates are a kind gift from Dr. Lakshminarayanan Rajamani (Singapore Eye Research Institute, Singapore).
(§2) Kanamycin and ampicillin were used as antibacterial control agents. […] Then, sequential 2-fold serial dilutions of the mix were diluted in 50 μL MH broth and 50 μL cell cultures were added to wells. […] All assays were carried out in triplicate.

Morganella morganii = format: cell-based; conditions: Morganella morganii ATCC 25830
Excerpt: (§3) The experiments were repeated three times.

Bacillus subtilis = format: cell-based; conditions: Bacillus subtilis ATCC 6633
Excerpt: as §3

Pseudomonas aeruginosa = format: cell-based; conditions: for MIC: Pseudomonas aeruginosa ATCC 9027; for MIC value: Table 15, unit inferred
Excerpt: as §3

Staphylococcus aureus = Staphylococcus aureus ATCC 29737
Procedure: as §1, §2

Klebsiella pneumoniae = conditions: for MIC value: Table 15, unit inferred
Procedure: as §1, §2

Escherichia coli = conditions: for MIC: Escherichia coli ATCC 25922; for MIC value: Table 15, unit inferred
Procedure: as §1, §2

Acinetobacter baumannii = conditions: for MIC value: Table 15, unit inferred
Procedure: as §1, §2

Enterococcus faecalis = format: cell-based; conditions: strain not given, Table 14, preliminary screening
Procedure: MIC values for compounds (1-11) were assessed using 96-well plate format with Mueller Hinton (MH) broth, using the two-fold dilution method, previously reported in standard methods provided by Clinical and Laboratory Standards S8 Institute (CLSI). Kanamycin and ampicillin were used as antibacterial control agents. According to the reference, the compounds (1-11) were first dissolved in DMSO+0.1% TFA at a concentration of 3.2 mg/mL and 4 μL was serially diluted in 96 μL of MH broth. Then, sequential 2-fold serial dilutions of the mix were diluted in 50 μL MH broth and 50 μL cell cultures were added to wells. […] All assays were carried out in triplicate.

Enterobacter cloacae = conditions: for MIC value: Table 15, unit inferred
Procedure: as §1, §2

E. coli M6 = conditions: E. coli M6, compared with xenorceptide A2 (2)
Procedure: Resistance development of E. coli M6 against xenorceptide A2 was assessed by serial passaging of the bacteria in broth containing subinhibitory concentrations of the peptide. In brief, bacteria culture at mid-log phase was diluted to 10^5-10^6 CFU/mL in MHB containing 0.25×, 0.5×, 1×, 2×, and 4×MIC of the peptide. […] A new set of peptide concentration range was added to the cultures based on the latest MIC. This process was repeated over 14 days for three independent starting cultures.

[2] = Klebsiella pneumoniae ATCC 700603
[3] = Acinetobacter baumannii ATCC 19606
[4] = Table 14, preliminary screening

With `C[C@H](NC(=O)[C@H](CC(N)=O)NC(=O)[C@H](C)NC(=O)[C@@H](N)Cc1ccccc1)C(=O)N[C@H](C(=O)N[C@H]1Cc2c[nH]c3cc(ccc23)C(CCCN)[C@@H](C(=O)N[C@@H](CO)C(=O)N[C@@H](Cc2ccccc2)C(=O)O)NC(=O)[C@H](CO)NC1=O)[C@@H](C)O` (some centres unmarked) [Compound 31] the antibacterial activity [1] was “no activity”.
For `CC[C@H](C)[C@H](NC(=O)[C@H](CCCNC(=N)N)NC(=O)[C@H]1NC(=O)[C@H]([C@@H](C)O)NC(=O)[C@@H](NC(=O)[C@H]2NC(=O)[C@H](C)NC(=O)[C@@H](NC(=O)[C@H](C)NC(=O)[C@H]3NC(=O)[C@H]([C@@H](C)CC)NC(=O)[C@@H](N)Cc4c[nH]c5cc(ccc45)[C@@H]3C(N)=O)Cc3ccc(cc3)[C@@H]2C(N)=O)Cc2c[nH]c3cc(ccc23)[C@@H]1CCCN)C(=O)O` [xenorceptide A3], the MIC (Morganella morganii) was 64 µg/mL (≈ 42.3 µM), the MIC (Bacillus subtilis) was over 64 µg/mL and the MIC (Pseudomonas aeruginosa) was 64 µg/mL (≈ 42.3 µM). For the same compound, the MIC (Staphylococcus aureus) was over 64 µg/mL, the MIC (Klebsiella pneumoniae; [2]) was 8 µg/mL (≈ 5.28 µM) and the MIC (Escherichia coli) was 8 µg/mL (≈ 5.28 µM). The “MIC (E. coli)” value (Escherichia coli; strain not stated, product produced and tested against E. coli) was 8 µg/mL (≈ 5.28 µM) and the MIC (Acinetobacter baumannii; [3]) was over 64 µg/mL.
In the case of `CC(C)[C@@H]1NC(=O)[C@@H](N)Cc2c[nH]c3cc(ccc23)C(C(N)=O)[C@@H](C(=O)N[C@@H](C)C(=O)N[C@H]2Cc3ccc(cc3)C(C(N)=O)[C@@H](C(=O)N[C@H]3Cc4c[nH]c5cc(ccc45)C(CCCN)[C@@H](C(=O)N[C@@H](CCCNC(=N)N)C(=O)N[C@@H](Cc4ccccc4)C(=O)O)NC(=O)[C@H]([C@@H](C)O)NC3=O)NC(=O)[C@H](C)NC2=O)NC1=O` (some centres unmarked) [xenorceptide A8], the MIC (Pseudomonas aeruginosa) is reported as 64 µg/mL (≈ 41.7 µM), the MIC (Staphylococcus aureus) is reported as over 64 µg/mL and the MIC (Klebsiella pneumoniae; [2]) is reported as 4 µg/mL (≈ 2.61 µM). The MIC (Escherichia coli) was 2 µg/mL (≈ 1.3 µM) and the MIC (Acinetobacter baumannii; [3]) was over 64 µg/mL.
RGEGWVRAYWAKRF [Compound 26] was tested, and the MIC (Enterococcus faecalis) was over 64 µg/mL, the antibacterial activity [1] was “not active” and the MIC (Staphylococcus aureus; [4]) was over 64 µg/mL. The MIC (Enterobacter cloacae; Enterobacter cloacae, strain not given, Table 14, preliminary screening) was over 64 µg/mL, the MIC (Klebsiella pneumoniae; Klebsiella pneumoniae ATC 700603, Table 14, preliminary screening) was over 64 µg/mL and the MIC (Escherichia coli; [4]) was over 64 µg/mL. The MIC (Acinetobacter baumannii; Acinetobacter baumanii ATCC 19606, Table 14, preliminary screening) was over 64 µg/mL.
With “Xenorceptide B1 (GDRWLKWIKNH; listed as Photorhabdus laumondii)” the MIC value (Pseudomonas aeruginosa; Pseudomonas aeruginosa DM4150R) was over 32 µg/mL, the MIC value (Pseudomonas aeruginosa; Pseudomonas aeruginosa DM23376) was over 32 µg/mL and the MIC value (Pseudomonas aeruginosa; Pseudomonas aeruginosa DR4877/07) was over 32 µg/mL. It also gave an MIC value (Pseudomonas aeruginosa; Pseudomonas aeruginosa DR5790/07) of over 32 µg/mL, an MIC value (Enterobacter cloacae; Enterobacter cloacae ATCC 13047) of over 32 µg/mL and an MIC value (Enterobacter cloacae; Enterobacter cloacae CRE1010) of over 32 µg/mL. It also gave an MIC value (Enterobacter cloacae; Enterobacter cloacae CRE1014) of over 32 µg/mL, an MIC value (Enterobacter cloacae; Enterobacter cloacae CRE1015) of over 32 µg/mL and an MIC value (Enterobacter cloacae; Enterobacter cloacae CRE1016) of over 32 µg/mL. For the same compound, the MIC value (Enterobacter cloacae; Enterobacter cloacae CRE1017) was over 32 µg/mL, the MIC value (Klebsiella pneumoniae; ATCC 25922, printed under Klebsiella pneumoniae) was over 32 µg/mL and the MIC value (Klebsiella pneumoniae; CRE1006, Klebsiella pneumoniae) was over 32 µg/mL. It also gave an MIC value (Klebsiella pneumoniae; Klebsiella pneumoniae CRE 1007) of over 32 µg/mL, an MIC value (Klebsiella pneumoniae; Klebsiella pneumoniae CRE1008) of over 32 µg/mL and an MIC value (Klebsiella pneumoniae; Klebsiella pneumoniae CRE1011) of over 32 µg/mL. For the same compound, the MIC value (Klebsiella pneumoniae; Klebsiella pneumoniae CRE1012) was over 32 µg/mL, the MIC value (Escherichia coli; Escherichia coli M2) was over 32 µg/mL and the MIC value (Escherichia coli; Escherichia coli M6) was over 32 µg/mL. It also gave an MIC value (Escherichia coli; Escherichia coli M10) of over 32 µg/mL, an MIC value (Escherichia coli; Escherichia coli M11) of over 32 µg/mL and an MIC value (Acinetobacter baumannii; Acinetobacter baumanii ACβA1001) of over 32 µg/mL. The MIC value (Acinetobacter baumannii; Acinetobacter baumanii ACβA1002) was over 32 µg/mL, the MIC value (Acinetobacter baumannii; Acinetobacter baumanii ACβA1003) was over 32 µg/mL and the MIC value (Acinetobacter baumannii; Acinetobacter baumanii ACβA1004) was over 32 µg/mL. The MIC value (Acinetobacter baumannii; Acinetobacter baumanii ATCC 19606) was over 32 µg/mL.
For colistin [reference compound], the “development of reduced susceptibility in serial passage” value (E. coli M6) was “readily became less susceptible”.
